Like-named read-outs stand apart in the source and are kept apart here.
What was measured:
[1] = biological target: AEA-DA lipid probe targets in Neuro2a cells (Mus musculus, UniProt P52293)
[2] = biological target: T1, AEA-DA lipid probe targets in Neuro2a cells (Mus musculus, UniProt Q8VI75)
T1 sequence (Q8VI75 1-1082): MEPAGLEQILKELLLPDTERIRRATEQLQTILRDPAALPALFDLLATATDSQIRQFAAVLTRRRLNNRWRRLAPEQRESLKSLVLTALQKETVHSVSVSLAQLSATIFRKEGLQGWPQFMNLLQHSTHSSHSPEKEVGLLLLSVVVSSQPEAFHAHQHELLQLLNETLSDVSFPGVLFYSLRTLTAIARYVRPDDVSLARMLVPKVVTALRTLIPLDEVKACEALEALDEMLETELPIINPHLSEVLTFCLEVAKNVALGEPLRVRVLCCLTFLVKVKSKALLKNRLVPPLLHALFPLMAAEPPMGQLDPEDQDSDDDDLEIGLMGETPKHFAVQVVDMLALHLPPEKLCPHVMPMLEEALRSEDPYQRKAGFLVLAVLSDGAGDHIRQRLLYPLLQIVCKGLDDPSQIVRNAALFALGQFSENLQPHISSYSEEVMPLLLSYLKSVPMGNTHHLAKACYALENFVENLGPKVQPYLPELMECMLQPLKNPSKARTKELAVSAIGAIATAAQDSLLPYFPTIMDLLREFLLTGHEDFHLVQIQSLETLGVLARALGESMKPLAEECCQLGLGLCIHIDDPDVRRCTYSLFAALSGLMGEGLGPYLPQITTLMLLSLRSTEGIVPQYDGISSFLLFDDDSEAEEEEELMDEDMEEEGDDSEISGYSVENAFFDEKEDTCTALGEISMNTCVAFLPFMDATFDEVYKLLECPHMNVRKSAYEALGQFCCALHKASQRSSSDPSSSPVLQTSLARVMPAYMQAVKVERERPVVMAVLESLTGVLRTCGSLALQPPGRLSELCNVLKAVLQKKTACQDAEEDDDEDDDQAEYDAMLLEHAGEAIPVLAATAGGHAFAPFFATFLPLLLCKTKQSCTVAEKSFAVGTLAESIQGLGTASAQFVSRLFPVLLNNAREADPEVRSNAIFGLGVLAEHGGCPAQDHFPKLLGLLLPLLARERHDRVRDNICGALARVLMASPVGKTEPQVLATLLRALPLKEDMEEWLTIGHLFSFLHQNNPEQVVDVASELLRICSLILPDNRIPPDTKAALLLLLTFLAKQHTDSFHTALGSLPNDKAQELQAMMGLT

[3] = biological target: T2, AEA-DA lipid probe targets in Neuro2a cells (Mus musculus, UniProt Q6PD26)
T2 sequence (Q6PD26 1-555): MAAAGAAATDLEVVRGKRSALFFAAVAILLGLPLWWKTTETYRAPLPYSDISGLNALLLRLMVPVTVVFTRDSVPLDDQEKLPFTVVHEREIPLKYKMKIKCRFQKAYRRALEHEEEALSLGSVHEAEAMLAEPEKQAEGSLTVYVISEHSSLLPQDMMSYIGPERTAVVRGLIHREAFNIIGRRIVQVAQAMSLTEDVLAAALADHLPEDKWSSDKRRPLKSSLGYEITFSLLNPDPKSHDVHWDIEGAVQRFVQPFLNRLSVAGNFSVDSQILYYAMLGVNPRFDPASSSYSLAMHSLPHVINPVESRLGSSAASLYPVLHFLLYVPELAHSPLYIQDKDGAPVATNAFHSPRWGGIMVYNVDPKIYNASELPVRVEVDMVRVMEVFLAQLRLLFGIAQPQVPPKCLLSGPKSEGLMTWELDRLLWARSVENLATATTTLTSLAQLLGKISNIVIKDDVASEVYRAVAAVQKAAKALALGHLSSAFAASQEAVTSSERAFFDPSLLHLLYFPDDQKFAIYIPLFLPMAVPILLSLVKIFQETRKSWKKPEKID

[4] = biological target: AEA-DA lipid probe targets in Neuro2a cells (Mus musculus, UniProt Q9R1P3)
Chain of AEA-DA lipid probe targets in Neuro2a cells (Mus musculus, UniProt Q9R1P3) (Q9R1P3 whole entry): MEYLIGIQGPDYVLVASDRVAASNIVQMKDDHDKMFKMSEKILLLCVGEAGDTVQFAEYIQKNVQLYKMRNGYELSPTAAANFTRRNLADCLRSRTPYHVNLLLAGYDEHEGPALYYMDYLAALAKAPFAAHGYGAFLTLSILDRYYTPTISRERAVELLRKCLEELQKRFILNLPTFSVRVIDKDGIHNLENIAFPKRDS

[5] = biological target: T3, AEA-DA lipid probe targets in Neuro2a cells (Mus musculus, UniProt Q9R0P6); conditions: for SILAC ratio, SEC11A (P67812): Neuro2a cells, AEA-DA probe
T3 sequence (Q9R0P6 1-179): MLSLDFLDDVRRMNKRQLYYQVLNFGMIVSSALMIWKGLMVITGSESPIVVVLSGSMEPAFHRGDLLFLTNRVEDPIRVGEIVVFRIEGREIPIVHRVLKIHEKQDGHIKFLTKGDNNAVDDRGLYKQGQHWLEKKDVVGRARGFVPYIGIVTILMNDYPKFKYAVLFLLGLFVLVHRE

[6] = biological target: T4, AEA-DA lipid probe targets in Neuro2a cells (Mus musculus, UniProt Q8BHC4); conditions: for SILAC ratio, DCAKD (Q8BHC4): Neuro2a cells, AEA-DA probe
T4 sequence (Q8BHC4 1-231): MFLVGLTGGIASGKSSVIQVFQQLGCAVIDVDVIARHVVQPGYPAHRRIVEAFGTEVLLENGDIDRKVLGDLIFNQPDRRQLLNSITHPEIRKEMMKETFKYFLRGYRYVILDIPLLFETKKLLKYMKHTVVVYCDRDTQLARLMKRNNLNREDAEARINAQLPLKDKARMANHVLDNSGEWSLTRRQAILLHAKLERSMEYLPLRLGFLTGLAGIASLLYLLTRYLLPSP

[7] = biological target: AEA-DA lipid probe targets in Neuro2a cells (Mus musculus, UniProt P20029)
Chain of AEA-DA lipid probe targets in Neuro2a cells (Mus musculus, UniProt P20029) (P20029 20-655): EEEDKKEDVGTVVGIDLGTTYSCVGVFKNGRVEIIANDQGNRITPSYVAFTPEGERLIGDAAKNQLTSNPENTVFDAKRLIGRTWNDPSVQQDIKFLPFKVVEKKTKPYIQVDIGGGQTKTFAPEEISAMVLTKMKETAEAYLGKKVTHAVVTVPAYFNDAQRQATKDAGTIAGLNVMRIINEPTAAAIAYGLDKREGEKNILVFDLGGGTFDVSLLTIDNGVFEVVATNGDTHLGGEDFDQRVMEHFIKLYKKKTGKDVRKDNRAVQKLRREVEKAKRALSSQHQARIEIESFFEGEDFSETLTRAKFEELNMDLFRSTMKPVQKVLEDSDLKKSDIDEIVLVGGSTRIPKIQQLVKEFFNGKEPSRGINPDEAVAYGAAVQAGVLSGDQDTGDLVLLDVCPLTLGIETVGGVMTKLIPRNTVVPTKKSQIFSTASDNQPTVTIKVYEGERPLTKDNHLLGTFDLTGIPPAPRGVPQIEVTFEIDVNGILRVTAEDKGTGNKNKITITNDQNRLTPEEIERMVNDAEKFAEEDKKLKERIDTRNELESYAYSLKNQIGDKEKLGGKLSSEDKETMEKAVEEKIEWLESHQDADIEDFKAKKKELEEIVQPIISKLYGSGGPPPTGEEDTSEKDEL

[8] = biological target: T5, AEA-DA lipid probe targets in Neuro2a cells (Mus musculus, UniProt Q9DBH5)
T5 sequence (Q9DBH5 47-358): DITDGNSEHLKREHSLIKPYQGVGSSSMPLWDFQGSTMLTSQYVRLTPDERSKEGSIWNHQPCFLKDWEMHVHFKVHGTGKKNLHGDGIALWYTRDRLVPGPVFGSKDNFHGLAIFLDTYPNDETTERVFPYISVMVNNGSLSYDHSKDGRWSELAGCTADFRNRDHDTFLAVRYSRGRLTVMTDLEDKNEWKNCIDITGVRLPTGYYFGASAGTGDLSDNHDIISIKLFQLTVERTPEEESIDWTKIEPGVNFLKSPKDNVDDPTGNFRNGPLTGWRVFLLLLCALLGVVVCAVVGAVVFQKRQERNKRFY

CCCCC/C=C\C/C=C\C/C=C\C/C=C\CCCC(=O)NCCO [AEA, anandamide, reference compound]
SILAC ratio Kpna2 ([1]; competitor 200 μM): 1.5 | SILAC ratio Ipo4 ([2]; competitor 200 μM): 1.5 | SILAC ratio Pigs ([3]; competitor 200 μM): 1.6 | SILAC ratio Psmb2 ([4]; competitor 200 μM): 1.3 | SILAC ratio, SEC11A (P67812) ([5]; competitor 200 μM): 1.9 | SILAC ratio, Sec11a ([5]; competitor 200 μM): 1.9 | SILAC ratio, DCAKD (Q8BHC4) ([6]; competitor 200 μM): 1.9 | SILAC ratio, Dcakd ([6]; competitor 200 μM): 1.9 | SILAC ratio Hspa5 ([7]; competitor 200 μM): 1.2 | SILAC ratio Lman2 ([8]; competitor 200 μM): 1.5

O=C(/C=C/c1cccnc1)NCCCCC1CCN(C(=O)c2ccccc2)CC1 [FK-866, reference compound]
SILAC ratio Kpna2 ([1]; competitor 25 μM): 1.2 | SILAC ratio Ipo4 ([2]; competitor 25 μM): 1.3 | SILAC ratio Pigs ([3]; competitor 25 μM): 1.3 | SILAC ratio Psmb2 ([4]; competitor 25 μM): 1.7 | SILAC ratio, SEC11A (P67812) ([5]; competitor 25 μM): 1.1 | SILAC ratio, Sec11a ([5]; competitor 25 μM): 1.1 | SILAC ratio, DCAKD (Q8BHC4) ([6]; competitor 25 μM): 1.1 | SILAC ratio, Dcakd ([6]; competitor 25 μM): 1.1 | SILAC ratio Hspa5 ([7]; competitor 25 μM): 1.2 | SILAC ratio Lman2 ([8]; competitor 25 μM): 1.1

CN1CCN(C(=O)c2c(-c3ccccc3)c3cc([N+](=O)[O-])ccc3n2C)CC1 [KML110, (1-Methyl-5-nitro-3-phenyl-1H-indol-2-yl)(4-methylpiperazin-1-yl)methanone]
SILAC ratio Kpna2 ([1]; competitor 25 μM): 1.2 | SILAC ratio Ipo4 ([2]; competitor 25 μM): 1.4 | SILAC ratio Pigs ([3]; competitor 25 μM): 1.2 | SILAC ratio Psmb2 ([4]; competitor 25 μM): 1.7 | SILAC ratio, Sec11a ([5]; competitor 25 μM): 1.6 | SILAC ratio, Dcakd ([6]; competitor 25 μM): 1.4 | SILAC ratio Hspa5 ([7]; competitor 25 μM): 1.4 | SILAC ratio Lman2 ([8]; competitor 25 μM): 1.3

CN1CCN(C(=O)c2[nH]c3ccc([N+](=O)[O-])cc3c2-c2ccccc2)CC1 [MJN228, (4-Methylpiperazin-1-yl)(5-nitro-3-phenyl-1H-indol-2-yl)methanone]
SILAC ratio Kpna2 ([1]; competitor 10 μM): 1.3 | SILAC ratio Kpna2 ([1]; competitor 25 μM): 1.2 | SILAC ratio Kpna2 ([1]; competitor 50 μM): 0.9 | SILAC ratio Kpna2 ([1]; competitor 100 μM): 1.3 | SILAC ratio Ipo4 ([2]; competitor 10 μM): 1.0 | SILAC ratio Ipo4 ([2]; competitor 25 μM): 1.3 | SILAC ratio Ipo4 ([2]; competitor 50 μM): 1.0 | SILAC ratio Ipo4 ([2]; competitor 100 μM): 1.6 | SILAC ratio Pigs ([3]; competitor 10 μM): 1.3 | SILAC ratio Pigs ([3]; competitor 25 μM): 1.6 | SILAC ratio Pigs ([3]; competitor 50 μM): 1.7 | SILAC ratio Pigs ([3]; competitor 100 μM): 2.0 | SILAC ratio Psmb2 ([4]; competitor 10 μM): 1.3 | SILAC ratio Psmb2 ([4]; competitor 25 μM): 1.4 | SILAC ratio Psmb2 ([4]; competitor 50 μM): 1.2 | SILAC ratio Psmb2 ([4]; competitor 100 μM): 2.2 | SILAC ratio, SEC11A (P67812) ([5]; competitor 25 μM): 1.6 | SILAC ratio, Sec11a ([5]; competitor 10 μM): 1.2 | SILAC ratio, Sec11a ([5]; competitor 25 μM): 1.6 | SILAC ratio, Sec11a ([5]; competitor 50 μM): 1.7 | SILAC ratio, Sec11a ([5]; competitor 100 μM): 2.3 | SILAC ratio, DCAKD (Q8BHC4) ([6]; competitor 25 μM): 1.4 | SILAC ratio, Dcakd ([6]; competitor 10 μM): 1.2 | SILAC ratio, Dcakd ([6]; competitor 25 μM): 1.4 | SILAC ratio, Dcakd ([6]; competitor 50 μM): 1.5 | SILAC ratio, Dcakd ([6]; competitor 100 μM): 1.9 | SILAC ratio Hspa5 ([7]; competitor 10 μM): 1.4 | SILAC ratio Hspa5 ([7]; competitor 25 μM): 1.4 | SILAC ratio Hspa5 ([7]; competitor 50 μM): 1.4 | SILAC ratio Hspa5 ([7]; competitor 100 μM): 1.5 | SILAC ratio Lman2 ([8]; competitor 10 μM): 1.2 | SILAC ratio Lman2 ([8]; competitor 25 μM): 1.1 | SILAC ratio Lman2 ([8]; competitor 50 μM): 2.1 | SILAC ratio Lman2 ([8]; competitor 100 μM): 1.5

C=CCN(C)CCCCCCOc1ccc(C(=O)c2ccc(Br)cc2)c(F)c1 [Ro 48-8071, reference compound]
SILAC ratio Kpna2 ([1]; competitor 25 μM): 0.9 | SILAC ratio Ipo4 ([2]; competitor 25 μM): 1.0 | SILAC ratio Pigs ([3]; competitor 25 μM): 1.1 | SILAC ratio Psmb2 ([4]; competitor 25 μM): 1.0 | SILAC ratio, SEC11A (P67812) ([5]; competitor 25 μM): 1.6 | SILAC ratio, Sec11a ([5]; competitor 25 μM): 1.6 | SILAC ratio, DCAKD (Q8BHC4) ([6]; competitor 25 μM): 1.0 | SILAC ratio, Dcakd ([6]; competitor 25 μM): 1.0 | SILAC ratio Hspa5 ([7]; competitor 25 μM): 0.9 | SILAC ratio Lman2 ([8]; competitor 25 μM): 0.7
